Values belong to the compound of their own block, whether it stands above or below them.
What was measured:
[1] = Population pharmacokinetic analysis; format: in vivo, HIV-infected Thai patients
[2] = cited from earlier work
[3] = indinavir model, bootstrap median
[4] = indinavir model, final model estimate

- Inter-individual variability IIV (CL/F) [1, 3]: 0.29
- Inter-individual variability IIV (Ktr) [1, 3]: 0.352
- Ktr (= Ka within a transit model) [1, 3]: 2.37 h⁻¹
- Residual variability, proportional σ (IDV 400 mg) [1, 3]: 0.42
- Residual variability, proportional σ (IDV 600 mg) [1, 3]: 0.29
- Inter-individual variability IIV (CL/F) [1, 4]: 0.30
- Inter-individual variability IIV (Ktr) [1, 4]: 0.38
- Ktr (= Ka within a transit model) [1, 4]: 2.32 h⁻¹
- Residual variability, proportional σ (IDV 400 mg) [1, 4]: 0.42
- Residual variability, proportional σ (IDV 600 mg) [1, 4]: 0.29
- Inter-individual variability IIV (Vd/F) ([1]; indinavir model, final model, ω^2(V/F) = θpV/F × ω^2(CL/F)): 0.23
- interindividual variability of CL/F ([1]; indinavir, final population estimate): 30%
SMILES: CC(C)(C)NC(=O)[C@@H]1CN(Cc2cccnc2)CCN1C[C@@H](O)C[C@@H](Cc1ccccc1)C(=O)N[C@H]1c2ccccc2C[C@H]1O [IDV, Indinavir]
- indinavir AUC associated with an increased risk of developing nephrotoxicity ([2]; Thai patients receiving IDV/r 800/100 mg twice daily): > 60000 µg·h/mL
- indinavir CL/F higher in male patients compared to female patients ([2]; after adjusting for concomitant ritonavir use): 30%
- indinavir bioavailability higher in female patients than in males ([2]; analysis including only nine women): 48%

- Residual variability σ (Proportional) ([1]; both, human, in vivo): 0.36
- interindividual variability of CL/F ([1]; both, human, in vivo): 48%
- interindividual variability of Vd/F ([1]; both, human, in vivo): 45%
- θIDVDOSE-600mg (factor on ritonavir CL/F) ([1]; both, human, in vivo): 0.78
- θSEX-Female (factor on ritonavir CL/F) ([1]; both, human, in vivo): 0.77
- CL/F ([1]; human, in vivo): 10.1 L/h
- CL/F ([1]; human, in vivo, 100 mg): 10.1 L/h
SMILES: CC(C)c1nc(CN(C)C(=O)N[C@H](C(=O)N[C@@H](Cc2ccccc2)C[C@H](O)[C@H](Cc2ccccc2)NC(=O)OCc2cncs2)C(C)C)cs1 [RTV, ritonavir]

Reference: publication PMC3058116 (Therapeutic drug monitoring, 2011)
